Source: patent publication US11214594B2, “Antimicrobial peptide having synergistic antibacterial effect with antibiotics on multidrug resistant bacteria, and use thereof” (priority 2016, dated 2022)
Values after ≈ are worked out from the molar mass of the structure shown. Read-outs that look alike come from different tables or passages of the source. Where a SMILES comes first, the peptide text is derived from it.

What was measured:
MDRAB 12035 [1] = test: MIC of antibiotic during combined treatment with antimicrobial peptide; format: cell-based, Acinetobacter baumannii
Summary of the method: (§1)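 Broth microdilution in MH medium; strains were diluted to 2×10^6 CFU per ml before plating. Peptide was serially diluted stepwise at 2:1 starting from its MIC, and MH-diluted antibiotic was then added to determine MIC. The reversed arrangement was also tested.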

E. coli [2] = format: cell-based, Escherichia coli; conditions: E. coli
Summary of the method: as §1

MDREC 1229 = format: cell-based, Escherichia coli
Summary of the method: as §1

MDRST 8007 = test: Minimal inhibitory concentration (MIC), single agent; format: cell-based, Salmonella typhimurium; conditions: agent alone
Summary of the method: (§2)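 MIC read-out = lowest peptide level with no bacterial proliferation. Strains diluted in MH medium to 2×10^6 CFU; peptide twofold serial dilutions in MH added 1:1 in microtiter wells.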

MDRAB 12035 [3] = test: microbe, parasite or virus in culture; format: cell-based, Acinetobacter baumannii
Summary of the method: as §2

A. baumannii = test: microbe, parasite or virus in culture; format: cell-based, Acinetobacter baumannii
Summary of the method: as §2

E. coli [4] = test: MIC of antibiotic during combined treatment with antimicrobial peptide; format: cell-based, Escherichia coli; conditions: for Antibiotic MIC, Erythromycin / Antibiotic MIC, Linezolid / Antibiotic MIC, Vancomycin: E. coli
Summary of the method: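 First, antibiotic solution is diluted with MH medium; next, the dilution is dispensed into wells containing peptide; finally, the orientation is swapped and MIC of each mixture determined.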

[5] = peptide treatment concentration 2 μg/ml
[6] = peptide treatment concentration 4 μg/ml
[7] = peptide treatment concentration 6 μg/ml
[8] = peptide treatment concentration 8 μg/ml
[9] = peptide treatment concentration 16 μg/ml
[10] = peptide treatment concentration 32 μg/ml
[11] = peptide treatment concentration 64 μg/ml
[12] = with Erythromycin […] (Conc./MIC 1)

SMILES: CC[C@H](C)[C@H](NC(=O)[C@H](CCCCN)NC(=O)[C@H](Cc1c[nH]c2ccccc12)NC(=O)[C@@H](N)CCCNC(=N)N)C(=O)N[C@@H](Cc1ccccc1)C(=O)N[C@@H](CCCCN)C(=O)N[C@@H](CCCCN)C(=O)N[C@H](C(=O)N1CCC[C@H]1C(=O)N[C@@H](CCCCN)C(=O)N[C@@H](Cc1ccccc1)C(=O)N[C@@H](CC(C)C)C(=O)N[C@@H](Cc1c[nH]cn1)C(=O)N[C@@H](CO)C(=O)N[C@@H](Cc1c[nH]c2ccccc12)C(=O)N[C@@H](CCCCN)C(=O)N[C@@H](CCCCN)C(=O)N[C@@H](Cc1ccccc1)C(N)=O)[C@@H](C)CC [PapMA-3, RWK IFK KIP KFL HSW KKF-NH2] (H-RWKIFKKIPKFLHSWKKF-NH2; N-terminus assumed)
- Linezolid MIC during combined treatment with peptide (MDRAB 12035 [1]; [5]): 128 µg/mL
- Vancomycin MIC during combined treatment with peptide (MDRAB 12035 [1]; [5]): >128 µg/mL
- Erythromycin MIC during combined treatment with peptide (MDRAB 12035 [1]; [6]): 8 µg/mL
- Linezolid MIC during combined treatment with peptide (MDRAB 12035 [1]; [6]): 32 µg/mL
- Vancomycin MIC during combined treatment with peptide (MDRAB 12035 [1]; [6]): 128 µg/mL
- Erythromycin MIC during combined treatment with peptide (MDRAB 12035 [1]; [7]): 4 µg/mL
- Linezolid MIC during combined treatment with peptide (MDRAB 12035 [1]; [7]): 32 µg/mL
- Vancomycin MIC during combined treatment with peptide (MDRAB 12035 [1]; [7]): 32 µg/mL
- Erythromycin MIC during combined treatment with peptide (MDRAB 12035 [1]; [8]): 0.25 µg/mL
- Linezolid MIC during combined treatment with peptide (MDRAB 12035 [1]; [8]): 16 µg/mL
- Vancomycin MIC during combined treatment with peptide (MDRAB 12035 [1]; [8]): 16 µg/mL
- Erythromycin MIC during combined treatment with peptide (MDRAB 12035 [1]; [9]): 0 µg/mL
- Linezolid MIC during combined treatment with peptide (MDRAB 12035 [1]; [9]): 0 µg/mL
- Vancomycin MIC during combined treatment with peptide (MDRAB 12035 [1]; [9]): 0 µg/mL
- Erythromycin MIC during combined treatment with peptide (MDRAB 12035 [1]; [10]): 0 µg/mL
- Linezolid MIC during combined treatment with peptide (MDRAB 12035 [1]; [10]): 0 µg/mL
- Vancomycin MIC during combined treatment with peptide (MDRAB 12035 [1]; [10]): 0 µg/mL
- Erythromycin MIC during combined treatment with peptide (MDRAB 12035 [1]; [11]): 0 µg/mL
- Linezolid MIC during combined treatment with peptide (MDRAB 12035 [1]; [11]): 0 µg/mL
- Vancomycin MIC during combined treatment with peptide (MDRAB 12035 [1]; [11]): 0 µg/mL
- Peptide MIC (E. coli [2]; [12]): 0 µg/mL
- Peptide MIC (E. coli [2]; with Linezolid […] (Conc./MIC 1)): 0 µg/mL
- Peptide MIC (E. coli [2]; with Vancomycin 1024 μg/ml (Conc./MIC 1)): 0 µg/mL
- Peptide MIC (MDREC 1229; [12]): 0 µg/mL
- Peptide MIC (MDREC 1229; with Linezolid 512 μg/ml (Conc./MIC 1)): 0 µg/mL
- Minimal inhibitory concentration MIC (MDRST 8007): 32 µg/mL (≈ 13.2 µM)
- Minimal inhibitory concentration MIC (MDRAB 12035 [3]): 16 µg/mL (≈ 6.62 µM)
- Peptide MIC, peptide alone (MDRAB 12035 [3]): 16 µg/mL
- Minimal inhibitory concentration MIC (A. baumannii): 16 µg/mL (≈ 6.62 µM)
- Peptide MIC, peptide alone (A. baumannii): 16 µg/mL
- Antibacterial activity relative to PapMA-1 (A. baumannii; A. baumannii and antibiotic-resistant strains thereof): 4 times
- Synergistic effect of antibacterial activity with existing antibiotics compared with PapMA-1 (E. coli [4]; E. coli and MDREC1229): level similar to that of the PapMA-1 peptide
- Antibiotic MIC, Erythromycin (E. coli [4]; erythromycin combined with peptide at 1 μg/ml): 64 µg/mL
- Antibiotic MIC, Erythromycin (E. coli [4]; erythromycin combined with peptide at 2 μg/ml): 32 µg/mL
- Antibiotic MIC, Erythromycin (E. coli [4]; erythromycin combined with peptide at 4 μg/ml): 16 µg/mL
- Antibiotic MIC, Erythromycin (E. coli [4]; erythromycin combined with peptide at 6 μg/ml): 4 µg/mL
- Antibiotic MIC, Erythromycin (E. coli [4]; erythromycin combined with peptide at 8 μg/ml): 1 µg/mL
- Antibiotic MIC, Erythromycin (E. coli [4]; erythromycin combined with peptide at 16 μg/ml): 0.125 µg/mL
- Antibiotic MIC, Erythromycin (E. coli [4]; erythromycin combined with peptide at 32 μg/ml): 0 µg/mL
- Antibiotic MIC, Erythromycin (E. coli [4]; erythromycin combined with peptide at 64 μg/ml): 0 µg/mL
- Antibiotic MIC, Linezolid (E. coli [4]; linezolid combined with peptide at 1 μg/ml): 128 µg/mL
- Antibiotic MIC, Linezolid (E. coli [4]; linezolid combined with peptide at 2 μg/ml): 64 µg/mL
- Antibiotic MIC, Linezolid (E. coli [4]; linezolid combined with peptide at 4 μg/ml): 32 µg/mL
- Antibiotic MIC, Linezolid (E. coli [4]; linezolid combined with peptide at 6 μg/ml): 32 µg/mL
- Antibiotic MIC, Linezolid (E. coli [4]; linezolid combined with peptide at 8 μg/ml): 16 µg/mL
- Antibiotic MIC, Linezolid (E. coli [4]; linezolid combined with peptide at 16 μg/ml): 2 µg/mL
- Antibiotic MIC, Linezolid (E. coli [4]; linezolid combined with peptide at 32 μg/ml): 0 µg/mL
- Antibiotic MIC, Linezolid (E. coli [4]; linezolid combined with peptide at 64 μg/ml): 0 µg/mL
- Antibiotic MIC, Vancomycin (E. coli [4]; vancomycin combined with peptide at 1 μg/ml): >128 µg/mL
- Antibiotic MIC, Vancomycin (E. coli [4]; vancomycin combined with peptide at 2 μg/ml): >128 µg/mL
- Antibiotic MIC, Vancomycin (E. coli [4]; vancomycin combined with peptide at 4 μg/ml): >128 µg/mL
- Antibiotic MIC, Vancomycin (E. coli [4]; vancomycin combined with peptide at 6 μg/ml): 128 µg/mL
- Antibiotic MIC, Vancomycin (E. coli [4]; vancomycin combined with peptide at 8 μg/ml): 32 µg/mL
- Antibiotic MIC, Vancomycin (E. coli [4]; vancomycin combined with peptide at 16 μg/ml): 8 µg/mL
- Antibiotic MIC, Vancomycin (E. coli [4]; vancomycin combined with peptide at 32 μg/ml): 0 µg/mL
- Antibiotic MIC, Vancomycin (E. coli [4]; vancomycin combined with peptide at 64 μg/ml): 0 µg/mL
